The results in this text go back to US5532267A, “Amidinonaphthyl furancarboxylate derivatives and acid addition salts therof” (Torii & Co., Ltd., priority 1992, dated 1996).

One data set has as its system adjuvant arthritis. Nature of the data set: Effectiveness in treating adjuvant arthritis (Mycobacterium butyricum). It is filed as in vivo, rat. The settings on record: 60 mg/kg, oral, day -1 to day 13. The protocol:
Adjuvant arthritis is known as a representative model of autoimmune diseases and is a effective means of testing agents to treat human rheumatoid arthritis (Encyclopedia of Immunology, edited by I. M. Roitt, Academic Press, 1992; Otterness, I. G., et al., J. of Rheumatology (1991), volume 18, pages 505-511),
The method of experiment was as follows. A 0.6% Mycobacterium butyricum liquid paraffin suspension, 0.1 ml/animal, was administered to a rat at a subcutaneous site of left hind-limb sole to induce adjuvant arthritis. The present compound was orally administered (in the form of a suspension in water) consecutively from 1 day before the induction to 13 days after the induction. The efficacy of the present compound on adjuvant arthritis was evaluated by examining the swelling accompanied by red spots and subcutaneous knots at the fore-limb, hind-limb, tail, ear and periphery of eye with the lapse of days (on the 8th, 10th, 12th, 14th, 16th and 18th days after adjuvant administration), expressing the results in terms of scores according to the method of F. D. Wood et al. (Int. Arch. Allergy (1969), volume 35, pages 456-467), and calculating the percentage inhibition relative to the control group. Thus, the higher value of percentage inhibition indicates the higher effectiveness.

The next data set can be described thus: in vivo. The settings on record: rat. The protocol: In the rat acute toxicity test, the LD50 was greater than 2,000 mg/kg (p.o. oral administration). The compound of Example 22 was tested in three groups.(five rats per group) of rats at dosages of (1) 2000 mg/kg, (2) 1000 mg/kg, and (3) 500 mg/kg; the compound was prepared in the form of a suspension in distilled water and administered orally.

A further data set concerns the target thrombin (Homo sapiens, UniProt P00734). Nature of the data set: anti-thrombin activity, hydrolysis of TAME (tosylarginine methyl ester). The data set is classed as biochemical. The protocol: The values in Table 1 represent molar concentrations (IC50) of test compounds which inhibit 50% of the activity of each enzyme to hydrolyze TAME (tosylarginine methyl ester). The anti-trypsin, anti-plasmin, anti-kallikrein and anti-thrombin activities were determined according to the method of Muramatsu et al. (J. Biochem. (1965), volume 58, page 214).

Another data set addresses T1, C1s (Homo sapiens, UniProt P09871).
T1 sequence (P09871 16-688): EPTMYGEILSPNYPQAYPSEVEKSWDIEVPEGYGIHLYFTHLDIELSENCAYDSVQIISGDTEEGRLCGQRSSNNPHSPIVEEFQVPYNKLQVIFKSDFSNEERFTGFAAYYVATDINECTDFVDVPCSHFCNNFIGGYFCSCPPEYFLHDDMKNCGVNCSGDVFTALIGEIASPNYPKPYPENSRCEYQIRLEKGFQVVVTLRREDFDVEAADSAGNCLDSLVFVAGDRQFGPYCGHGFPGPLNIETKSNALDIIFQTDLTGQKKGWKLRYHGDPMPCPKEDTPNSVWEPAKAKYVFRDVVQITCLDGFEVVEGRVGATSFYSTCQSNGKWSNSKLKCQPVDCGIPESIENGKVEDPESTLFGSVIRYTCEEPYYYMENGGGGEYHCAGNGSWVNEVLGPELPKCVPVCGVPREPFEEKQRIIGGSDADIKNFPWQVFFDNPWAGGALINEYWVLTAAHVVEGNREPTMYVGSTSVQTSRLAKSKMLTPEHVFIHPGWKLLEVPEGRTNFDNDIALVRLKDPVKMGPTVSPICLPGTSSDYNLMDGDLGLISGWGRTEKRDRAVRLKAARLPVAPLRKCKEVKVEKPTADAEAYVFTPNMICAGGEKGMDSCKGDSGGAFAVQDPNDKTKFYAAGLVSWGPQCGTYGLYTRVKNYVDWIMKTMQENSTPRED
Nature of the data set: anti-complement (anti-C1 esterase) activity, C1s hydrolysis of ATEE (acetyltyrosine ethyl ester). It is filed as biochemical.

Experimental for C1s: The anti-C1 esterase (C1r, C1s) activity was determined according to the method of Okamura et al. (Biochem. Biophys. Acta (1973), volume 295, pages 252-257). […] The values for C1s represent molar concentrations (IC50) of test compounds which inhibit 50% of the activity of C1s to hydrolyze ATEE (acetyltyrosine ethyl ester).

As for `Cl.N=C(N)c1ccc2cc(OC(=O)c3ccc(CNC(=O)CCCC(=O)O)o3)ccc2c1` [Example 22, 6-Amidino-2-naphthyl 5-(4-carboxybutyrylaminomethyl)furan-2-carboxylate hydrochloride], the “Percentage inhibition (arthritis score)” value with adjuvant arthritis worked out at 97.3%. The same compound registered an LD50 at 336 h in “in vivo” (in vivo, po) greater than 2000 mg/kg. Also, in “in vivo” (oral, up to 2,000 mg/kg, two weeks observation), the “general conditions and survival (in words)” value was “no changes were found”. The “thrombin inhibition (in words)” value on thrombin is reported as “inhibitor”. In addition, the IC50 is 3500 nM on thrombin (hydrolysis of TAME, read-out: Thr: molar concentration inhibiting 50% of enzyme activity (IC50)) and 250 nM on C1s (hydrolysis of ATEE, read-out: Cls: molar concentration inhibiting 50% of C1s activity (IC50)). Moreover, on C1s, the “C1s inhibition (in words)” value is reported as “inhibitor”.

The LD50 is the dose at which mortality reaches 50%.
